Results: patent US20150141251A1, “SPONTANEOUS SELF-FORMING MIXED SURFACTANT NANO-EMULSIONS FROM WATER INSOLUBLE PESTICIDES IN MIXED WATER MISCIBLE SOLVENTS” (priority 2012, published 2015)

Tested on: Alfalfa weevil
Test: Alfalfa weevil control on sprayed Alfalfa plots
Type: in vivo
Conditions: Treatment No. 2, 0.022 lb active ingredient per acre
Excerpt: The relative effect of pesticidal formulation of the present disclosure was studied for controlling Alfalfa weevil on Alfalfa:
To study the effect of formulation of the present disclosure, four 10×20 sq.ft plots of Alfalfa were set up for each treatment and 20 gal/acre test solution was sprayed with hand sprayer. Then 10 stems of Alfalfa per replication were collected randomly after 4 days and 7 days of treatment. The stems so collected were shaken into 1 gal white container. The evaluation results obtained are provided herein Table No. 5.

Question: Which results are given for CC1(C)C(C=C(Cl)Cl)C1C(=O)OC(C#N)c1ccc(F)c(Oc2ccccc2)c1 (stereo not drawn) [Beta- CYFLUTHRIN]?
Answer: Alfalfa weevil larvae/10 stems (Mean ± SE) (4 Days after treatment): 0.3 ± 0.3 larvae/10 stems; Alfalfa weevil larvae/10 stems (Mean ± SE) (7 Days after treatment): 0.0 ± 0.0 larvae/10 stems
